The record followed here is US20140073760A1, “USE OF AN ANG-(1-7) RECEPTOR AGONIST IN ACUTE LUNG INJURY” (Charite-Universitatsmedizin Berlin, priority 2008, published 2014).

Entries after “also recorded” stand apart in the source; their conditions may differ. Non-standard residues stand in square brackets, D forms with d. No end group written: not given here.

This test has as its system oleic acid induced acute lung injury. The test can be described thus: Oleic acid induced acute lung injury (ALI) in anesthetized, ventilated rats. Format: in vivo, male Sprague-Dawley rats. The note with it: rat. On the procedure:
Experiments were performed in male Sprague-Dawley rats (Charles River Wiga GmbH, Sulzfeld, Germany) with a body weight (bw) of 330-360 g. Animals received care in accordance with the Guide for the Care and Use of Laboratory Animals (Institute of Laboratory Animal Resources, 7th edition 1996). The study was approved by the local animal care and use committee.
Rats were anesthetized by intraperitoneal injection of medetomidine (0.5 mg/kg bw, Domitor®, Dr. E. Graeub AG, Basel, Switzerland), fentanyl (0.05 mg/kg bw, JanssenCilag, Neuss, Germany) and midazolam (5 mg/kg bw, Dormicum®, Roche, Basel, Switzerland) as previously described (17). Following tracheotomy, the trachea was cannulated and ventilation was established (Advanced Animal Respirator, TSE Systems GmbH, Bad Homburg, Germany) with a tidal volume of 6 ml/kg bw at 80 breaths/min. Catheters (internal diameter 0.58 mm; Sims Portex Ltd., Hythe, United Kingdom) were introduced into the left carotid artery and the right internal jugular vein for monitoring of arterial blood pressure (AP), fluid replacement and drug delivery as previously described (18). An ultrasonic flowprobe (Transonic®, Transonic Systems Inc., Ithaca, N.Y.) was placed around the ascending aorta distal to the branching of the coronary arteries for continuous monitoring of cardiac output (CO). After median thoracotomy, a catheter was introduced via the right ventricle into the pulmonary artery for measurement of pulmonary artery pressure (PAP). AP, PAP and CO were continuously recorded by the software package DasyLab 32 (DasyLab, Moenchengladbach, Germany). Pulmonary vascular resistance (PVR) was calculated as arteriovenous pressure differences over flow under the assumption of a constant left atrial pressure of 2 mmHg.
In group 2 (OA), ALI was induced by intravenous infusion of 0.2 mg/kg oleic acid (Sigma, Munich, Germany) over 30 min in the absence of any treatment. In group 3 (OA+Ang-(1-7)), ALI was induced as in group II, and infusion of Ang-(1-7) at 5 pmol/kg per min was initiated immediately after ALI induction. In group 4 (OA+AVE0991), ALI was induced as in group II, and infusion of AVE0991 at 500 pmol/kg per min was initiated immediately after ALI induction. In two additional groups of n=6 each, in which only myeloperoxidase (MPO) activity was measured, infusion of the Ang-(1-7) receptor blocker A779 (10 pmol/kg per min) was initiated either alone (group 5) or in combination with Ang-(1-7) (5 pmol/kg per min; group 6) immediately after induction of ALI.
After surgical preparation and hemodynamic stabilization over at least 15 min, baseline hemodynamics were recorded and arterial blood gases analyzed (RapidLab 348; Chiron Diagnostics GmbH, Fernwald, Germany). Removed blood volume was replaced by hydroxyethyl starch (6% hydroxyethyl starch 200/0.6; Fresenius, Bad Homburg, Germany). Immediately after baseline recordings, 0.2 mg/kg oleic acid was infused intravenously over 30 min in groups II-VI or an equal volume of 0.9% NaCl in group I. In all groups, measurements were repeated in 60 min intervals up to a total of 4 h at which time animals were sacrificed by exsanguination. After in situ ligation of the right main bronchus, lungs were excised and processed for determination of wet-to-dry weight ratio and myeloperoxidase (MPO) activity as described below.
For determination of lung water content, wet-to-dry weight ratio was measured by use of the microwave drying technique (18). Recruitment of inflammatory cells was analyzed by measurements of MPO activity in lung homogenates as previously described (19). In brief, MPO activity was determined by a 3,3′-5,5′-tetramethylbenzidine (TMB)-based photometric assay, compared to appropriate standard curves, and expressed as units per gram lung tissue (U/g).
All data are presented as mean±SEM. Data were tested by Kruskal-Wallis test for differences between groups. Statistical significance was assumed at P<0.05.

As to “Asp^1-Arg^2-Val^3-Tyr^4-Ile^5-His^6-D-Ala^7 (DRVYIH[dA]) [A779, reference compound]”, the “rescue effect of Ang-(1-7) infusion on OA-induced ALI (lung MPO activity)” value (A779 10 pmol/kg per min in combination with Ang-(1-7) 5 pmol/kg per min after OA, only MPO measured) is listed as “blocks the rescue effect of Ang-(1-7) infusion; also recorded: lost after Mas blockade”. Moreover, the “OA-induced ALI (lung MPO activity)” value (A779 infusion 10 pmol/kg per min alone after OA, only MPO measured) is “aggravates OA-induced ALI; also recorded: aggravated after Mas blockade”.

For “Asp^1-Arg^2-Val^3-Tyr^4-Ile^5-His^6-Pro^7 [Ang-(1-7)]”, the “OA-induced change in lung wet-to-dry weight ratio” value (Ang-(1-7) infusion 5 pmol/kg per min after OA, 4 h, FIG. 1(B)) was “abrogated OA-induced changes”. For the same substance, the “systemic arterial pressure (systemic hypotension in OA-infused rats)” value (Ang-(1-7) infusion 5 pmol/kg per min after OA, 4 h, FIG. 1(C)) is “attenuated systemic hypotension”. In addition, under “Ang-(1-7) infusion 5 pmol/kg per min after OA, 4 h, FIG. 1(D)”, the “OA-induced change in pulmonary vascular resistance” value is reported as “abrogated OA-induced changes”. The “OA-induced change in lung MPO activity” value (Ang-(1-7) infusion 5 pmol/kg per min after OA, 4 h, lung homogenates, FIG. 1(A)) is “abrogated OA-induced changes”. In addition, the “development of OA-induced ALI” value (OA 0.2 mg/kg i.v. over 30 min, Ang-(1-7) infusion 5 pmol/kg per min started immediately after ALI induction, 4 h) is listed as “completely prevented the development of OA-induced ALI”. In addition, the “lung oedema and inflammation in oleic-acid induced ALI” value (infusion after OA, conclusion of the study) is “completely prevents lung oedema and inflammation”.
